Activity and Flu intensity data for 41 molecules are collected here from ChEMBL document CHEMBL1914333, “Synthesis and evaluation of compounds that induce readthrough of premature termination codons” (Bioorg Med Chem Lett, 2011).

The source made the active and inactive calls. The calls are words filed in the database; no cut-off is given here.

Assay [1] deals with T1, 80S Ribosome (Homo sapiens) (UniProt P08865+P42677+P62753+P15880+P23396+P61247+P62701+P22090+P46782+P62081+P62241+P46781+P46783+P62280+P25398+P62277+P62263+P62841+P62244+P62249+P08708+P62269+P39019+P60866+P63220+P62266+P62847+P62851+P62854+P62979+P62857+P62273+P62861+P39023+P36578+P46777+Q02878+P18124+P62424+P62917+P32969+P27635+P62906+P62913+P30050+P26373+P40429+P50914+P61313+P18621+Q07020+Q02543+P84098+P46778+P35268+P62829+P62750+P83731+P61254+P61353+P46776+P46779+P47914+P62888+P62899+P62910+P49207+P42766+P18077+Q9Y3U8+P83881+P61927+P61513+P63173+P62891+P62945+P05388+P05386). In words: Induction of ribosome to readthrough in human A-T lymphoblastoid cells assessed as irradiation-induced ATM Ser1981 nuclear foci formation at 30 uM after 4 days by PTT-ELISA. The class given is subcellular. (ELISA stands for enzyme-linked immunosorbent assay.)

For assay [2], the target named is T1, 80S Ribosome (Homo sapiens). In words: Induction of ribosome to readthrough in human A-T lymphoblastoid cells assessed as ATM ser1981 autophosphorylation at 30 uM after 4 days by PTT-ELISA assay. Type of assay: subcellular.

With `Cc1cn(Cc2ccc(-c3ccccc3F)o2)c(=O)[nH]c1=O`, the Activity in assay [1] is 9.6%. Moreover, the Flu intensity in assay [2] stood at 6.16.

Take `N=C1NC(=O)/C(=C/c2ccc(-c3ccccc3F)o2)S1`: the Flu intensity entry in assay [2] was “inactive”.

Consider `O=c1ccn(Cc2ccc(-c3ccccc3[N+](=O)[O-])o2)c(=O)[nH]1`, for which the Activity in assay [1] stood at 10.7%. Besides, the Flu intensity in assay [2] worked out at 4.94.

Take `O=C1NC(=S)S/C1=C\c1ccc(-c2ccccc2F)o1`: in assay [2], the Flu intensity was determined as 2.86.

Turning to `O=C1NC(=S)S/C1=C\c1cc2ccccc2[nH]1`, in assay [2], the Flu intensity entry was “inactive”.

For the molecule `N=C1NC(=O)/C(=C/c2ccco2)S1`, the Flu intensity result in assay [2] was “inactive”.

Turning to `Nc1nc(=O)n(Cc2ccc(-c3ccccc3[N+](=O)[O-])o2)cc1F`, the outcome in assay [1] was inactive. In addition, in assay [2], the Flu intensity entry was “inactive”.

`N=C1NC(=O)/C(=C/c2ccc(-c3ccccc3)o2)S1`: the Flu intensity result in assay [2] was “inactive”.

On to `O=C1NC(=S)S/C1=C\c1ccc(-c2ccccc2C(F)(F)F)o1`, for which the Flu intensity entry in assay [2] was “inactive”.

For the molecule `O=c1ccn(Cc2ccc(-c3ccccc3)o2)c(=O)[nH]1`, the Activity in assay [1] was determined as 9.4%. In addition, the Flu intensity in assay [2] worked out at 3.42.

`O=C1NC(=S)S/C1=C\c1c[nH]c2ccccc12`: in assay [2], the Flu intensity entry is “inactive”.

For the molecule `N=C1NC(=O)/C(=C/c2cn(Cc3ccc(-c4ccccc4[N+](=O)[O-])o3)c(=O)[nH]c2=O)S1`, the Activity in assay [1] was 18%. Further, in assay [2], the Flu intensity was 2.42.

For `Nc1ccn(Cc2ccc(-c3ccccc3[N+](=O)[O-])o2)c(=O)n1`, the outcome in assay [1] was inactive. In addition, in assay [2], the Flu intensity result was “inactive”.

Turning to `O=C1NC(=S)S/C1=C\c1ccc(-c2cccc(Cl)c2)o1`, the Flu intensity in assay [2] stood at 2.86.

As for `COc1cccc(-c2ccc(/C=C3\SC(=S)NC3=O)o2)c1`, in assay [2], the Flu intensity was 2.66.

On to `N=C1NC(=O)/C(=C/c2ccc(-c3ccccc3C(F)(F)F)o2)S1`, for which, in assay [2], the Flu intensity result is “inactive”.

As to `Cc1cn(Cc2ccc(-c3ccccc3[N+](=O)[O-])o2)c(=O)[nH]c1=O`, the outcome in assay [1] was inactive. For the same molecule, the Flu intensity result in assay [2] is “inactive”.

Regarding `N=C1NC(=O)/C(=C/c2c[nH]c3ccccc23)S1`, the Flu intensity result in assay [2] was “inactive”.

With `CN1C(=N)S/C(=C\c2ccc(-c3ccccc3[N+](=O)[O-])o2)C1=O`, the Flu intensity entry in assay [2] was “inactive”.

`O=Cc1cn(Cc2ccc(-c3ccccc3[N+](=O)[O-])o2)c(=O)[nH]c1=O`: the Activity in assay [1] was 16%. Moreover, the Flu intensity in assay [2] came to 2.24.

With `Cc1cn(Cc2ccc(-c3ccccc3)o2)c(=O)[nH]c1=O`, the Activity in assay [1] was 22.8%. Further, the Flu intensity in assay [2] was found to be 3.8.

Take `N=C1NC(=O)/C(=C/c2c[nH]c(=O)[nH]c2=O)S1`: the Activity in assay [1] stood at 17%. The Flu intensity in assay [2] is 5.32.

For `O=c1ccn(Cc2ccc(-c3ccccc3F)o2)c(=O)[nH]1`, the Activity in assay [1] worked out at 20%. In addition, the Flu intensity in assay [2] is 5.43.

For `N=C1NC(=O)/C(=C/c2ccc(-c3ccccc3Cl)o2)S1`, the Flu intensity entry in assay [2] is “inactive”.

With `N=C1NC(=O)/C(=C/c2cc3ccccc3o2)S1`, the Flu intensity result in assay [2] was “inactive”.

For the molecule `N=C1NC(=O)/C(=C/c2ccc(-c3ccccn3)o2)S1`, the Flu intensity entry in assay [2] was “inactive”.

For `COc1ccccc1-c1ccc(/C=C2\SC(=S)NC2=O)o1`, the Flu intensity result in assay [2] was “inactive”.

As for `COc1cccc(-c2ccc(/C=C3\SC(=N)NC3=O)o2)c1`, the Flu intensity in assay [2] amounted to 1.9.

Turning to `O=c1ccn(Cc2ccc(-c3cccc(Cl)c3)o2)c(=O)[nH]1`, the Activity in assay [1] came to 11.3%. Besides, in assay [2], the Flu intensity came to 5.07.

For the molecule `N=C1NC(=O)/C(=C/c2ccc(-c3ccccc3)s2)S1`, the Flu intensity entry in assay [2] is “inactive”.

For the molecule `N=C1NC(=O)/C(=C/c2ccc(-c3cccc(F)c3)o2)S1`, the Flu intensity entry in assay [2] was “inactive”.

Regarding `N=C1NC(=O)/C(=C/c2cc3ccccc3[nH]2)S1`, the Flu intensity result in assay [2] was “inactive”.

`O=C1NC(=S)S/C1=C\c1ccc(-c2ccccc2[N+](=O)[O-])o1`: in assay [2], the Flu intensity result was “inactive”.

Consider `O=C1NC(=S)S/C1=C\c1ccc(-c2ccccc2Cl)o1`, for which the Flu intensity in assay [2] came to 3.55.

Regarding `O=C1NC(=S)S/C1=C\c1cc2ccccc2o1`, in assay [2], the Flu intensity is 3.5.

For `N=C1NC(=O)/C(=C/c2ccc(-c3cccc(Cl)c3)o2)S1`, the Flu intensity in assay [2] was 2.27.

For `O=c1[nH]c(=O)n(Cc2ccc(-c3ccccc3[N+](=O)[O-])o2)cc1F`, in assay [1], the Activity was 14.5%. In addition, the Flu intensity in assay [2] stood at 2.08.

On to `COc1ccccc1-c1ccc(/C=C2\SC(=N)NC2=O)o1`, for which the Flu intensity entry in assay [2] was “inactive”.

For `O=C1NC(=S)S/C1=C\c1ccc(-c2ccccn2)o1`, in assay [2], the Flu intensity entry is “inactive”.

Regarding `O=C1NC(=S)S/C1=C\c1ccc(-c2cccc(F)c2)o1`, in assay [2], the Flu intensity came out at 3.44.

For the molecule `N=C1NC(=O)/C(=C/c2ccc(-c3ccccc3[N+](=O)[O-])o2)S1`, in assay [2], the Flu intensity is 3.27.
